{"source": "patent US7915009B2", "about": "“Activation and inhibition of the immune system” (The Mathilda and Terence Kennedy Institute of Rheumatology …, priority 1999, dated 2011)", "key": {"allo-lymphocytes [1]": {"system": "allo-lymphocytes", "experiment": "Cytokine production of allo-lymphocytes co-cultured with PSI-treated DC (ELISA)", "format": "cell-based, human", "method": "FIG. 8. Cytokine production of allo-lymphocytes co-cultured with vehicle treated or PSI treated DC. Mature DC was treated with vehicle or PSI (1 μM) as described above. Allo-lymphocytes and each DC were plated at 2×10^5 cells per well on a 96 well plate and stimulated with PMA (10 nM) or left unstimulated for […].\n(§1) Cells were pre-treated with vehicle or 1 μM of PSI for 4 h, or infected with adenoviral vectors for 2 h. PSI-treated DC were then directly used in experiments whereas infected cells were further cultured for 2 days to allow overexpression of the relevant protein to occur. 24 h after stimulation of the cells, culture supernatants were collected and kept frozen. Cytokine levels in cell culture supernatants were measured by standard 2 or 3 layer sandwich ELISA techniques using specific monoclonal and polyclonal antibodies for TNFα, IL-4, IL-6, IL-8, IL-12 and IFNγ. Antibody pairs and standards for these assays have been purchased from Pharmingen, with the exception of IL-12 reagents that were gifted from the Genetics Institute (Boston, USA)."}, "mature DC [2]": {"system": "mature DC", "experiment": "Cytokine production of DC treated with PSI (ELISA)", "format": "cell-based, human", "conditions": "PSI 1 μM", "method": "FIG. 9. Cytokine productions of DC treated with vehicle or PSI. Mature DC was treated with vehicle or PSI (1 μM) as described above. Each DC and allo-lymphocytes were plated at 2×10^5 cells per well on a 96 well plate and stimulated with PMA (10 nM) or left unstimulated for 48 hr. Supernatants were analysed for IL-6, IL-8, IL-12 and TNFα by ELISA.\nas §1"}, "allo-lymphocytes [3]": {"system": "allo-lymphocytes", "experiment": "Allo-MLR with mixtures of PSI-treated and vehicle-treated DC", "format": "cell-based, human", "conditions": "judged from slope of proliferative response curves, PSI 1 μM", "method": "FIG. 5. PSI pre-treated DC inhibit the growing ability of lymphocytes in allo-MLR. Mature DC was treated with PSI as described above. After washing, each DC was mixed to make different compositions: vehicle treated DC only (∘), ¼ number of PSI treated DC mixed with ¾ vehicle treated DC (●), ⅛ number of PSI treated DC mixed with […] vehicle treated DC (▪), or PSI treated DC only (▴). Graded number of each mixture and 10^5 cells of allo-lymphocytes were plated on a 96 well plate. Proliferation was determined at day 6 by ^3H-TdR uptake assay.\n(§2) A means of detecting whether PSI-DC were generating inhibitory effects is to culture T cells with a mixture of PSI treated and untreated DC. […] Next we investigated whether exposure to PSI-DC would induce long term unresponsiveness in the T cells. T cells were exposed to normal or PSI-DC as previously described after which the T cells were collected and were treated with a DC for a second time and the proliferative response measured (FIG. 6). […] This would indicate that the effects of exposure to PSI-DC are prolonged and the T cells acquire a non-responsive or anergic state."}, "NFκB": {"system": "NFκB", "conditions": "previously shown by the inventors; cited from earlier work"}, "mature DC [4]": {"system": "mature DC", "experiment": "Allogeneic MLR with PSI-treated DC, 3H-TdR uptake", "format": "cell-based, human", "conditions": "day 6", "method": "FIG. 2. Immunostimulatory capacity of DC treated with the proteosome inhibitor Cbz-Ile-Glu(O-tert-bytyl)-Ala-leucinal (PSI). Mature DC was treated with PSI (0.1 μM: ▴), (0.5 μM: ▪), (1, μM: ●) or without PSI (∘) for 4 h. After wash, different numbers of each category of DC and […] of allo-lymphocytes were plated on a 96 well plate. Proliferation was determined at day 6 using ^3H-TdR uptake assay. (Each point represents mean+/−SEM from five separate experiments).\nTo assay the immunostimulatory capacity of non-irradiated or irradiated (3000 rad from a ^137Cs source) DC, uninfected, adenovirus-infected, LPS-treated or monocyte-conditioned medium-treated DC were cultured in graded doses with 1×10^5 of allogeneic elutriated T cells in quadruplicate in a 96-well flat-bottom microtiter plate (Falcon). Proliferation was measured on day 5 by thymidine incorporation after a 16 h pulse with [^3H] thymidine (0.5 μCi/well; Amersham Life Science, UK).\n(§3) PSI is an inhibitor of proteosome activity and as such is capable of inhibiting induced IκB degradation and subsequent NF-κB activation. We used PSI to examine the function of NFκB in dendritic cell (DC) activity particularly in relation to antigen presentation and activation of T cells. We have previously shown that PSI is capable of inhibiting NFκB activation at concentrations up to 1 μM. To test the effect of PSI on DC viability mature DC were incubated with concentrations of PSI, ranging from 0.1 μM to 5 μM. […] To assess the role of NFκB in DC function, mature DC were incubated with 0.3 μM, 0.5 μM or 1 μM PSI for […] and the cells washed. As PSI is an activated peptide that binds irreversibly to the proteosomes, the function of the DC can be assessed over the 6 day period of the MLR despite the short period of drug exposure."}, "allo-lymphocytes [5]": {"system": "allo-lymphocytes", "experiment": "Surface antigens on allo-lymphocytes cultured with PSI-treated DC (FACScan)", "format": "cell-based, human", "method": "FIG. 7. […] Lymphocytes were cultured for 6 days as the same conditions with allo-MLR experiment using vehicle treated DC (green line), or PSI (1 μM) treated DC (red line). Each lymphocytes were phenotyped with MoAbs, CD3, CD25 (PE conjugated; Pharmingen), (CD54) (PE conjugated; Serotec), CD50 (FITC conjugated; Serotec) and analysed by FACScan.\n(§4) For FACS staining, cells were first harvested. For adherent cells where surface receptors need to be intact, a warm 2% EDTA in PBS solution was used for 20 min at 37° C. After cells were in solution, they were washed once and then resuspended in ice-cold FACS washing buffer. All subsequent incubations were performed at 4° C. For each analysis, 5×10^5 cells were incubated with the relevant antigen-specific antibody or isotype control for 30 min and then washed twice with FACS washing buffer. Cells were then examined by flow cytometry. cells were ready for analysis on a FACScan flow cytometer (Becton and Dickinson) by using the CellQuest (Becton Dickinson). Directly conjugated monoclonal antibodies to HLA-DR, HLA-A,B,C, CD80, CD86, CD3, CD14 and CD25 were purchased by Pharmingen, San Diego, USA)."}, "mature DC [6]": {"system": "mature DC", "experiment": "Surface antigen expression on PSI-treated DC (FACScan)", "format": "cell-based, human", "method": "FIG. 3. Effect of PSI on the expression of surface antigens was studied using monoclonal antibodies, HLA-DR, CD86 (PE conjugated); Pharmingen, San Diego, Calif.). on day 6 after PSI treatment, populations of untreated (green line), PSI (0.1 μM) treated (blue dotted line), PSI (1 μM) treated (red dotted line) were phenotyped with the MoAbs listed above and analysed on FACScan (Becton Dickinson).\nas §4"}, "mature DC [7]": {"system": "mature DC", "experiment": "Cell viability of DC treated with PSI, propidium iodide staining (FACS)", "format": "cell-based, human", "conditions": "PSI for 4 h, analysed 6 days after treatment", "method": "FIG. 1. Cell viability of DC treated with PSI. Mature DC was either left untreated, or treated with various doses of PSI for 4 h. After wash, cells were cultured in RPMI 1640 supplemented as described without monocyte condition medium. 6 days after treatment, cells were resuspended in PBS containing 10 μg/ml. Of propidium iodide PI and analysed on FACS scan.\nas §3"}, "allo-lymphocytes [8]": {"system": "allo-lymphocytes", "experiment": "Re-stimulation of allo-lymphocytes pre-cultured with PSI-treated DC", "format": "cell-based, human", "method": "FIG. 6. Impaired response of allo-lymphocytes pre-cultured with PSI treated or non-treated DC. Lymphocytes were co-cultured with 1/10 number of PSI treated (●, ▴) or non-treated DC (∘,Δ). After 2 days, each DC were removed by CD83, CD86 coated plate. Lymphocytes were cultured for another 4 days using vehicle treated DC (∘,●), or PSI (1 μM) treated DC (Δ,▴). Proliferation was determined by ^3H-TdR uptake assay. (Each point represents mean+/−SEM from three separate experiments).\nas §2\nFurther questions as to the mechanism of the lack of the T cell proliferative response were addressed. It could simply be due to lack of immunogenicity of the DC, or alternatively it could be due to the induction of a form of immunological tolerance or of immune regulation. The mechanism was analysed further by coculture experiments, adding PSI treated DC to untreated DC, and analysing the effect of the mixture on unprimed T cells in the MLR. […] Similar effects have been reported in a variety of tolerance models Zanders et al (1983) Nature 303, 625-627; Zanders et al (1985) J. Immunol. 15, 302-305; Park et al (1997) Eur. J. Immunol. 15, 302-305; and Waldmann & Cubbold (1998) Ann. Rev. Immunol. 16, 619-644 and so we asked whether PSI treated DC induced immunological tolerance. This was assessed by first exposing allogeneic T cells to PSI treated DC for 2 days, and then removing them, by panning with anti CD83 and anti CD86. […]"}, "[9]": {"conditions": "6 days with PSI (1 μM) treated DC"}, "[10]": {"conditions": "1 μM PSI, 6 days after treatment"}}, "note": "“Also recorded” adds a separate entry of the source. Where a SMILES comes first, the peptide text is derived from it. The star is where a group is joined. Cbz = O=C(OCc1ccccc1)*; OtBu = CC(C)(C)O*", "data": [{"smiles": "CC[C@H](C)[C@H](NC(=O)OCc1ccccc1)C(=O)N[C@@H](CCC(=O)OC(C)(C)C)C(=O)N[C@@H](C)C(=O)N[C@H](C=O)CC(C)C", "note": "[PSI, Cbz-Ile-Glu(O-tert-bytyl)-Ala-leucinal] (Cbz-IE(OtBu)AL-aldehyde)", "values": [{"measurement": "IFNγ production by T cells in response to PSI-DC", "setting": "allo-lymphocytes [1]; PSI 1 μM", "result": "not produced"}, {"measurement": "IL-2 production by T cells in response to PSI-DC", "setting": "allo-lymphocytes [1]; PSI 1 μM", "result": "not produced"}, {"measurement": "IL-4 production by T cells in response to PSI-DC", "setting": "allo-lymphocytes [1]; PSI 1 μM", "result": "unaffected; also recorded: not changed"}, {"measurement": "inhibition of IFNγ production of T cells exposed to PSI treated DC", "setting": "allo-lymphocytes [1]; PSI treated DC", "result": "more than 90%"}, {"measurement": "inhibition of IL-2 production of T cells exposed to PSI treated DC", "setting": "allo-lymphocytes [1]; PSI treated DC", "result": "more than 90%"}, {"measurement": "IL-6 expression from PSI-DC during the MLR", "setting": "mature DC [2]", "result": "to a lesser extent, IL-6 expression was inhibited; also recorded: not changed"}, {"measurement": "IL-8 production from PSI-DC during the MLR", "setting": "mature DC [2]", "result": "unaffected; also recorded: not changed"}, {"measurement": "IL-12 production by PSI treated DC", "setting": "mature DC [2]", "result": "Reductions"}, {"measurement": "TNF expression from PSI-DC during the MLR", "setting": "mature DC [2]", "result": "inhibited; also recorded: Reductions"}, {"measurement": "reduction of proliferative response by ⅛ or ¼ PSI-DC mixed with untreated DC", "setting": "allo-lymphocytes [3]", "result": "3-5 fold"}, {"measurement": "concentrations at which PSI inhibits NFκB activation", "setting": "NFκB", "result": "up to 1 μM"}, {"measurement": "T cell proliferation in allogeneic MLR", "setting": "mature DC [4]; DC pretreated with PSI 0.1 μM", "result": "no detectable effect"}, {"measurement": "T cell proliferation in allogeneic MLR", "setting": "mature DC [4]; DC pretreated with PSI 0.5 μM", "result": "failure of the T cells to proliferate"}, {"measurement": "T cell proliferation in allogeneic MLR", "setting": "mature DC [4]; DC pretreated with PSI 1 μM", "result": "failure of the T cells to proliferate"}, {"measurement": "yields of T cells after culture with PSI treated DC", "setting": "allo-lymphocytes [5]; 6 days culture", "result": "lower"}, {"measurement": "CD3 expression on T lymphocytes", "setting": "allo-lymphocytes [5]; [9]", "result": "reduced expression"}, {"measurement": "CD11a (LFA-1) expression on T lymphocytes", "setting": "allo-lymphocytes [5]; [9]", "result": "only marginally reduced; also recorded: some reduction"}, {"measurement": "CD25 expression on T lymphocytes", "setting": "allo-lymphocytes [5]; [9]", "result": "virtually abolished"}, {"measurement": "CD54 (ICAM-1) expression on T lymphocytes", "setting": "allo-lymphocytes [5]; [9]", "result": "reduced to a degree similar to CD3; also recorded: some reduction"}, {"measurement": "CD86 expression on DC", "setting": "mature DC [6]; [10]", "result": "reduced, to virtually background levels; also recorded: marked reduction"}, {"measurement": "HLA-DR expression on DC", "setting": "mature DC [6]; [10]", "result": "major reduction; also recorded: marked reduction"}, {"measurement": "HLA-DR expression on DC", "setting": "mature DC [6]; 0.1μ PSI, 6 days after treatment", "result": "minimal effect"}, {"measurement": "CD80 expression on DC", "setting": "mature DC [6]; PSI-treated DC", "result": "downregulation"}, {"measurement": "PSI concentrations showing some toxicity (propidium iodide staining)", "setting": "mature DC [7]", "result": "> 5", "unit": "µM"}, {"measurement": "response of T cells stimulated with PSI-DC prior to normal DC", "setting": "allo-lymphocytes [8]; 2 days PSI-DC, then 4 days normal DC", "result": "unable to respond; also recorded: lack of response"}, {"measurement": "response of T cells exposed to PSI-DC on the second round after normal DC", "setting": "allo-lymphocytes [8]; PSI 1 μM", "result": "failed to proliferate"}, {"measurement": "response of T cells to two rounds of PSI-DC", "setting": "allo-lymphocytes [8]; PSI 1 μM", "result": "did not respond"}]}]}
